Reference: PubChem BioAssay (NCI)
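GI50: concentration for 50% inhibition of growth. At the TGI there is no net growth.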

Key:
Assay in all cases: NCI tumour cell line growth inhibition, 384-well format
SR leukemia = tested on: SR leukemia
SK-MEL-2 melanoma = tested on: SK-MEL-2 melanoma
UACC-62 melanoma = tested on: UACC-62 melanoma
786-0 renal = tested on: 786-0 renal
HL-60(TB) leukemia = tested on: HL-60(TB) leukemia
SK-OV-3 ovarian = tested on: SK-OV-3 ovarian
UACC-257 melanoma = tested on: UACC-257 melanoma
MOLT-4 leukemia = tested on: MOLT-4 leukemia
T-47D breast = tested on: T-47D breast
CAKI-1 renal = tested on: CAKI-1 renal
U251 glioblastoma = tested on: U251 glioblastoma
RPMI-8226 leukemia = tested on: RPMI-8226 leukemia
CCRF-CEM leukemia = tested on: CCRF-CEM leukemia

With `Cn1cc(-c2ccc3c(c2)CCN3C(=O)Cc2cccc(C(F)(F)F)c2)c2c(N)ncnc21` the GI50 (SR leukemia) was 1.47 µM, the TGI (SR leukemia) was 3.54 µM and the GI50 (SK-MEL-2 melanoma) was 2.71 µM. For the same compound, the TGI (SK-MEL-2 melanoma) was 12.4 µM, the GI50 (UACC-62 melanoma) was 5.44 µM and the TGI (UACC-62 melanoma) was 17.9 µM. For the same compound, the GI50 (786-0 renal) was 3.99 µM, the TGI (786-0 renal) was 16.2 µM and the GI50 (HL-60(TB) leukemia) was 2.21 µM. The TGI (HL-60(TB) leukemia) was 6.42 µM, the GI50 (SK-OV-3 ovarian) was 1.63 µM and the TGI (SK-OV-3 ovarian) was 11.4 µM. It also gave a GI50 (UACC-257 melanoma) of 9.73 µM, a TGI (UACC-257 melanoma) of 31 µM and a GI50 (MOLT-4 leukemia) of 2.15 µM. For the same compound, the TGI (MOLT-4 leukemia) was 5.04 µM, the GI50 (T-47D breast) was 2.91 µM and the TGI (T-47D breast) was 9.03 µM. The GI50 (CAKI-1 renal) was 2.14 µM, the TGI (CAKI-1 renal) was 12.8 µM and the GI50 (U251 glioblastoma) was 9.54 µM. For the same compound, the TGI (U251 glioblastoma) was 39.4 µM, the GI50 (RPMI-8226 leukemia) was 4.44 µM and the TGI (RPMI-8226 leukemia) was 16 µM. The GI50 (CCRF-CEM leukemia) was 2.75 µM and the TGI (CCRF-CEM leukemia) was 7.98 µM.
